Measured values taken from ChEMBL document CHEMBL1154943, “Exploration of SAR features by modifications of thiazoleacetic acids as CRTH2 antagonists” (Bioorg Med Chem Lett, 2010).

Experiments:
[1] = biological target: T1, Prostaglandin D2 receptor 2 (Homo sapiens, UniProt Q9Y5Y4); test: Antagonist activity at human CRTH2 receptor expressed in HEK385-7 cells assessed as inhibition of PGD2-mediated beta-arrestin translocation preincubated 5 mins prior to PGD2 challenge measured after 5 mins by BRET assay; type: functional, cell-based
T1 sequence (Q9Y5Y4 whole entry): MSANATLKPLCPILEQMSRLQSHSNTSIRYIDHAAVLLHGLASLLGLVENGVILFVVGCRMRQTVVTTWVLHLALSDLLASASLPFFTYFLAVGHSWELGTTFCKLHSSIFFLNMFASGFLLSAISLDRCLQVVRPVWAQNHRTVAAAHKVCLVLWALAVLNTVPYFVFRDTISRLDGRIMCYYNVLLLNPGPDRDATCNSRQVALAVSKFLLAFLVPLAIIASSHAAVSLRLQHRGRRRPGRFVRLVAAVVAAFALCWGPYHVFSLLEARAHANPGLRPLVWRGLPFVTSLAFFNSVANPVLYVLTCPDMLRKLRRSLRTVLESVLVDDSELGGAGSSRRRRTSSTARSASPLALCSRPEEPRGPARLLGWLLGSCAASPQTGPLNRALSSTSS

[2] = biological target: T1, Prostaglandin D2 receptor 2; test: Displacement of [3H]PGD2 from human CRTH2 receptor expressed in HEK385-7 cells; type: cell-based
[3] = biological target: T2, Prostaglandin D2 receptor 2 (Homo sapiens) (UniProt Q9Y5Y4); test: Antagonist activity at human CRTH2 receptor expressed in HEK385-7 cells assessed as inhibition of PGD2-mediated beta-arrestin translocation preincubated 5 mins prior to PGD2 challenge measured after 5 mins by BRET assay relative to control; type: functional, cell-based
T2 sequence (whole entry): T1 sequence (Q9Y5Y4 whole entry)

[4] = biological target: T3, Prostaglandin D2 receptor (Mus musculus, UniProt P70263); test: Inhibition of mouse DP receptor
T3 sequence (P70263 whole entry): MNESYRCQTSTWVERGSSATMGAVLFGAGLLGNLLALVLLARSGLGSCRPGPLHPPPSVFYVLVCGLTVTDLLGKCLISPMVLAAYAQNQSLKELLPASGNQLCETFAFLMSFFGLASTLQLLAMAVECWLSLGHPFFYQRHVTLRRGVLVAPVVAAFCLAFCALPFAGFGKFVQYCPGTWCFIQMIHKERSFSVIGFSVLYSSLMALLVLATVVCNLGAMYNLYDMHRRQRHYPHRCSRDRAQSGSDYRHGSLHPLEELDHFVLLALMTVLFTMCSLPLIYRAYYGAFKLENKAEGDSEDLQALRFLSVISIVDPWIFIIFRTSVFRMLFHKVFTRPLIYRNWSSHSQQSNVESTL

Thromboxane A2 receptor = biological target: T4, Thromboxane A2 receptor (Homo sapiens, UniProt P21731); test: Inhibition of thromboxane A2 receptor
T4 sequence (P21731 whole entry): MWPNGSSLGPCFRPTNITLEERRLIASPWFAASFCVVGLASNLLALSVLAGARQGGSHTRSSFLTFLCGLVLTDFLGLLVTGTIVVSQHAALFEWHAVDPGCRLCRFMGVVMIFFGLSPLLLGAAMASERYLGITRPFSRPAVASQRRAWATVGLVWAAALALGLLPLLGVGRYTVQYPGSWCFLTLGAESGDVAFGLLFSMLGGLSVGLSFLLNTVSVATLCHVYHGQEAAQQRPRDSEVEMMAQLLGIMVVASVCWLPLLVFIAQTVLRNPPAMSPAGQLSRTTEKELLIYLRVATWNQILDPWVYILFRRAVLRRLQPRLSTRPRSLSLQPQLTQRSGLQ

[5] = biological target: T5, Prostaglandin D2 receptor 2 (Mus musculus, UniProt Q9Z2J6); test: Inhibition of mouse CRTH2 receptor
T5 sequence (Q9Z2J6 whole entry): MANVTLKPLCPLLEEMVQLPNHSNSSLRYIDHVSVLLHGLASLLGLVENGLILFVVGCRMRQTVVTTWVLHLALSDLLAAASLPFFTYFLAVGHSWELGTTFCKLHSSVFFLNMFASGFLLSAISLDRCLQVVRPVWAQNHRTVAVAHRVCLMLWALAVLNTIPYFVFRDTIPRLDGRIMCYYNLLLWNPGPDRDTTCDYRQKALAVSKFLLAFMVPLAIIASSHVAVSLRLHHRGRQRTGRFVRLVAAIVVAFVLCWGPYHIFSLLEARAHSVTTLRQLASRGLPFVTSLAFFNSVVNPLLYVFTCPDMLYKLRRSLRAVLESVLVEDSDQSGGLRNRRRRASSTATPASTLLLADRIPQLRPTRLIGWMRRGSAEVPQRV

[6] = Inhibition of guinea pig DP receptor; design: species or system Cavia porcellus
[7] = biological target: T6, Prostaglandin D2 receptor 2 (Rattus norvegicus, UniProt Q6XKD3); test: Inhibition of rat CRTH2 receptor
T6 sequence (Q6XKD3 whole entry): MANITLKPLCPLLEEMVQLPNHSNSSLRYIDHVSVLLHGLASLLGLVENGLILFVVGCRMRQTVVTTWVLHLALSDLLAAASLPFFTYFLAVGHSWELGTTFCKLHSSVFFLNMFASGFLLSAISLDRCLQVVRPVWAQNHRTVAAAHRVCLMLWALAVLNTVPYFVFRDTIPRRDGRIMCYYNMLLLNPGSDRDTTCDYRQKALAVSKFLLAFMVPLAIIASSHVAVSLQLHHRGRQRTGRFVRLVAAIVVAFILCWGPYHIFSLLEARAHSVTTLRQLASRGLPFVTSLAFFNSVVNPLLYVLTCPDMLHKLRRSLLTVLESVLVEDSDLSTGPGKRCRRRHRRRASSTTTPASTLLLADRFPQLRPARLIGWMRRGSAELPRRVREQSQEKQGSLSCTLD

[8] = biological target: T7, Prostaglandin D2 receptor (Homo sapiens, UniProt Q13258); test: Inhibition of human DP receptor
T7 sequence (Q13258 whole entry): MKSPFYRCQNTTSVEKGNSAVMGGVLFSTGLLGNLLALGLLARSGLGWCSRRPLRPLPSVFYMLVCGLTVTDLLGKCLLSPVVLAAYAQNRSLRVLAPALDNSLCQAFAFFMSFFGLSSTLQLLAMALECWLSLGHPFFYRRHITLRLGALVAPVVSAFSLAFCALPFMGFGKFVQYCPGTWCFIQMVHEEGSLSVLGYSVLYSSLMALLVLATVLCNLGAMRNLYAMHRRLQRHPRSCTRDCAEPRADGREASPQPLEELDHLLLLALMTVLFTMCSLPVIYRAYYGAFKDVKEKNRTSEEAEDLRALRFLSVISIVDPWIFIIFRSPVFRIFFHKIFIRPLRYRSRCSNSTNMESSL

[9] = biological target: T8, Chemoattractant receptor-homologous molecule expressed on Th2 cells (Cavia porcellus, UniProt Q56D28); test: Inhibition of guinea pig CRTH2 receptor
T8 sequence (Q56D28 whole entry): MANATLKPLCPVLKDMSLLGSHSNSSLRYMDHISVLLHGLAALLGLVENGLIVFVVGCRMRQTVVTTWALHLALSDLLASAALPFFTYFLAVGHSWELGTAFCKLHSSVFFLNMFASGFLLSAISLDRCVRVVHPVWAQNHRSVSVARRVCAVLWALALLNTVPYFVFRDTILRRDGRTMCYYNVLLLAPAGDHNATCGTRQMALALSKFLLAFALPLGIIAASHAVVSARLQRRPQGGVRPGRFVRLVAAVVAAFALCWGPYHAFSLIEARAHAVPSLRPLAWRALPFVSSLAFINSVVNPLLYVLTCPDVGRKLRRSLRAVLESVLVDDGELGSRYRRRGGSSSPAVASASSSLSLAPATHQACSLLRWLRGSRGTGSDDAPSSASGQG

SMILES: COc1ccc(N(c2ccc(OC)cc2)c2ncc(CC(=O)O)c(-c3cccc(F)c3)n2)cc1
- IC50 [1]: > 100000 nM
- IC50 [2]: 2790 nM
- Efficacy [3]: > 80%

SMILES: O=C(O)Cc1sc(N(c2ccccc2)c2cccnc2)nc1-c1ccc(F)cc1
- IC50 [1]: 1500 nM
- IC50 [2]: 43 nM
- Efficacy [3]: > 30%

SMILES: O=C(O)CCc1sc(C(c2ccc(F)cc2)c2ccc(F)cc2)nc1-c1cccc(F)c1
- IC50 [1]: 1000 nM
- IC50 [2]: 75 nM
- Efficacy [3]: > 80%

SMILES: O=C(O)Cc1sc(N(c2ccc(F)cc2)c2ccc(F)cc2)nc1-c1ccc(F)cc1
- IC50 [1]: 240 nM
- IC50 [2]: 23 nM
- Efficacy [3]: > 80%

SMILES: CS(=O)(=O)c1ccc(N(c2ccccc2)c2nc(-c3ccc(F)cc3)c(CC(=O)O)s2)cc1
- IC50 [1]: 2000 nM
- IC50 [2]: 190 nM
- Efficacy [3]: > 30%

SMILES: O=C(O)Cc1sc(N(c2ccccc2)c2ccccc2)nc1-c1ccc(Cl)cc1
- IC50 [1]: 72 nM
- IC50 [2]: 18 nM
- Efficacy [3]: > 80%

SMILES: O=C(O)COc1sc(C(c2ccc(F)cc2)c2ccc(F)cc2)nc1-c1cccc(F)c1
- IC50 [1]: 200 nM
- IC50 [2]: 83 nM
- Efficacy [3]: > 80%

SMILES: COc1ccc(N(c2ccc(OC)cc2)c2nc(-c3cccc(F)c3)c(CC(=O)O)s2)cc1
- IC50 [1]: 260 nM
- IC50 [2]: 15 nM
- Efficacy [3]: > 80%

SMILES: CC(c1ccccc1)(c1ccccc1)c1nc(-c2ccc(F)cc2)c(CC(=O)O)s1
- IC50 [1]: 85 nM
- IC50 [2]: 7.9 nM
- Efficacy [3]: > 80%

SMILES: O=C(O)Cc1cnc(N(c2ccc(F)cc2)c2ccc(F)cc2)nc1-c1cccc(F)c1
- IC50 [1]: > 100000 nM
- IC50 [2]: 1260 nM
- Efficacy [3]: > 80%

SMILES: O=C(O)Cc1[nH]c(C(c2ccc(F)cc2)c2ccc(F)cc2)nc1-c1ccc(F)cc1
- IC50 [1]: > 100000 nM
- IC50 [2]: 9140 nM
- Efficacy [3]: > 80%

SMILES: O=C(O)CCc1cnc(C(c2ccc(F)cc2)c2ccc(F)cc2)nc1-c1cccc(F)c1
- IC50 [1]: > 100000 nM
- IC50 [2]: 2070 nM
- Efficacy [3]: > 80%

SMILES: O=C(O)Cc1sc(N(c2ccccc2)c2ccccc2)nc1-c1ccc(F)cc1
- IC50 [1]: 98 nM
- IC50 [2]: 15 nM
- Efficacy [3]: > 80%

SMILES: O=C(O)Cc1sc(N(c2ccccc2)c2ccccc2)nc1-c1cccc(F)c1
- IC50 [1]: 79 nM
- IC50 [2]: 4.4 nM
- Efficacy [3]: > 80%

SMILES: N#Cc1ccc(N(c2ccccc2)c2nc(-c3ccc(F)cc3)c(CC(=O)O)s2)cc1
- IC50 [1]: 460 nM
- IC50 [2]: 84 nM
- Efficacy [3]: > 55%

SMILES: O=C(O)Cc1cnc(C(c2ccc(F)cc2)c2ccc(F)cc2)nc1-c1cccc(F)c1
- IC50 [1]: 12 nM
- IC50 [2]: 1.9 nM
- IC50 [4]: 5900 nM
- IC50 (Thromboxane A2 receptor): 31000 nM
- IC50 [5]: 3.4 nM
- IC50 [6]: > 100000 nM
- IC50 [7]: 7.5 nM
- IC50 [8]: 8500 nM
- Efficacy [3]: > 80%
- IC50 [9]: 29 nM
